# Data published in ChEMBL document CHEMBL3046161, “Synthesis of potential antitubercular and antimicrobial s-triazine-based scaffolds via Suzuki cross-coupling reaction” (2013).
# What was measured:
# Type in all cases: functional
# [1] = tested on: Mycobacterium tuberculosis; assay: Antimycobacterial activity against Mycobacterium tuberculosis H37Rv assessed as growth inhibition after 12 to 28 days by Lowenstein and Jensen agar dilution method
# Shigella flexneri [2] = assay: Antibacterial activity against Shigella flexneri MTCC 1457 assessed as growth inhibition at 3.12 to 50 ug/mL after 24 hr by agar disk diffusion method
# Escherichia coli [3] = assay: Antibacterial activity against Escherichia coli MTCC 739 assessed as growth inhibition at 3.12 to 50 ug/mL after 24 hr by agar disk diffusion method
# Aspergillus niger [4] = assay: Antifungal activity against Aspergillus niger MTCC 282 assessed as growth inhibition at 3.12 to 50 ug/mL after 24 hr by agar disk diffusion method
# Aspergillus clavatus [5] = assay: Antifungal activity against Aspergillus clavatus MTCC 1323 assessed as growth inhibition at 3.12 to 50 ug/mL after 24 hr by agar disk diffusion method
# Candida albicans [6] = assay: Antifungal activity against Candida albicans MTCC 183 assessed as growth inhibition at 3.12 to 50 ug/mL after 24 hr by agar disk diffusion method
# Aspergillus fumigatus [7] = assay: Antifungal activity against Aspergillus fumigatus MTCC 343 assessed as growth inhibition after 48 hr by agar streak dilution method; details: MTCC 343, 48 h
# Shigella flexneri [8] = assay: Antibacterial activity against Shigella flexneri MTCC 1457 assessed as growth inhibition after 24 hr by agar streak dilution method; details: MTCC 1457, 24 h
# Klebsiella pneumoniae [9] = assay: Antibacterial activity against Klebsiella pneumoniae MTCC 109 assessed as growth inhibition after 24 hr by agar streak dilution method; details: MTCC 109, 24 h
# Bacillus cereus [10] = assay: Antibacterial activity against Bacillus cereus MTCC 430 assessed as growth inhibition after 24 hr by agar streak dilution method; details: MTCC 430, 24 h
# [11] = tested on: Mycobacterium tuberculosis; assay: Antimycobacterial activity against Mycobacterium tuberculosis H37Rv assessed as growth inhibition measured within 10 days by BACTEC MGIT method; details: 240 h
# Proteus vulgaris [12] = assay: Antibacterial activity against Proteus vulgaris MTCC 1771 assessed as growth inhibition at 3.12 to 50 ug/mL after 24 hr by agar disk diffusion method
# Escherichia coli [13] = assay: Antibacterial activity against Escherichia coli MTCC 739 assessed as growth inhibition after 24 hr by agar streak dilution method; details: MTCC 739, 24 h
# Salmonella typhi [14] = assay: Antibacterial activity against Salmonella enterica subsp. enterica serovar Typhi MTCC 733 assessed as growth inhibition at 3.12 to 50 ug/mL after 24 hr by agar disk diffusion method
# Salmonella typhi [15] = assay: Antibacterial activity against Salmonella enterica subsp. enterica serovar Typhi MTCC 733 assessed as growth inhibition after 24 hr by agar streak dilution method; details: MTCC 733, 24 h
# Aspergillus fumigatus [16] = assay: Antifungal activity against Aspergillus fumigatus MTCC 343 assessed as growth inhibition at 3.12 to 50 ug/mL after 24 hr by agar disk diffusion method
# Klebsiella pneumoniae [17] = assay: Antibacterial activity against Klebsiella pneumoniae MTCC 109 assessed as growth inhibition at 3.12 to 50 ug/mL after 24 hr by agar disk diffusion method
# Bacillus cereus [18] = assay: Antibacterial activity against Bacillus cereus MTCC 430 assessed as growth inhibition at 3.12 to 50 ug/mL after 24 hr by agar disk diffusion method
# Candida albicans [19] = assay: Antifungal activity against Candida albicans MTCC 183 assessed as growth inhibition after 48 hr by agar streak dilution method; details: MTCC 183, 48 h
# Aspergillus clavatus [20] = assay: Antifungal activity against Aspergillus clavatus MTCC 1323 assessed as growth inhibition after 48 hr by agar streak dilution method; details: MTCC 1323, 48 h
# [21] = tested on: Mycobacterium tuberculosis; assay: Antimycobacterial activity against Mycobacterium tuberculosis H37Rv assessed as growth inhibition at MIC after 12 to 28 days by Lowenstein and Jensen agar dilution method
# Proteus vulgaris [22] = assay: Antibacterial activity against Proteus vulgaris MTCC 1771 assessed as growth inhibition after 24 hr by agar streak dilution method; details: MTCC 1771, 24 h
# Staphylococcus aureus [23] = assay: Antibacterial activity against Staphylococcus aureus MTCC 96 assessed as growth inhibition at 3.12 to 50 ug/mL after 24 hr by agar disk diffusion method
# Pseudomonas aeruginosa [24] = assay: Antibacterial activity against Pseudomonas aeruginosa MTCC 741 assessed as growth inhibition at 3.12 to 50 ug/mL after 24 hr by agar disk diffusion method
# Pseudomonas aeruginosa [25] = assay: Antibacterial activity against Pseudomonas aeruginosa MTCC 741 assessed as growth inhibition after 24 hr by agar streak dilution method; details: MTCC 741, 24 h
# Aspergillus niger [26] = assay: Antifungal activity against Aspergillus niger MTCC 282 assessed as growth inhibition after 48 hr by agar streak dilution method; details: MTCC 282, 48 h
# Staphylococcus aureus [27] = assay: Antibacterial activity against Staphylococcus aureus MTCC 96 assessed as growth inhibition after 24 hr by agar streak dilution method; details: MTCC 96, 24 h
SMILES,MIC [1] [µg/mL],inhibition zone (IZ) (Shigella flexneri [2]) [mm],inhibition zone (IZ) (Escherichia coli [3]) [mm],inhibition zone (IZ) (Aspergillus niger [4]) [mm],inhibition zone (IZ) (Aspergillus clavatus [5]) [mm],inhibition zone (IZ) (Candida albicans [6]) [mm],MIC (Aspergillus fumigatus [7]) [µg/mL],MIC (Shigella flexneri [8]) [µg/mL],MIC (Klebsiella pneumoniae [9]) [µg/mL],MIC (Bacillus cereus [10]) [µg/mL],MIC [11] [µg/mL],inhibition zone (IZ) (Proteus vulgaris [12]) [mm],MIC (Escherichia coli [13]) [µg/mL],inhibition zone (IZ) (Salmonella typhi [14]) [mm],MIC (Salmonella typhi [15]) [µg/mL],inhibition zone (IZ) (Aspergillus fumigatus [16]) [mm],inhibition zone (IZ) (Klebsiella pneumoniae [17]) [mm],inhibition zone (IZ) (Bacillus cereus [18]) [mm],MIC (Candida albicans [19]) [µg/mL],MIC (Aspergillus clavatus [20]) [µg/mL],further results
CC(=O)Nc1ccc2nc(NC(=O)CNc3ccc(-c4nc(N5CC(C)CC(C)C5)nc(N5CC(C)CC(C)C5)n4)cc3)sc2c1 (stereo unspecified),50,13,19,24,24,22,> 50,50,50,50,> 6.25,26,50,17,50,<10,21,17,25,50,growth inhibition (GI) [21]: 98%; MIC (Proteus vulgaris [22]): 6.25 µg/mL; inhibition zone (IZ) (Staphylococcus aureus [23]): 19 mm; inhibition zone (IZ) (Pseudomonas aeruginosa [24]): 19 mm; MIC (Pseudomonas aeruginosa [25]): 50 µg/mL; MIC (Aspergillus niger [26]): 6.25 µg/mL; MIC (Staphylococcus aureus [27]): 50 µg/mL
CC1CC(C)CN(c2nc(-c3ccc(NCC(=O)Nc4nc5ccc(Cl)cc5s4)cc3)nc(N3CC(C)CC(C)C3)n2)C1 (stereo unspecified),62.5,26,21,17,<10,12,> 50,6.25,50,6.25,> 6.25,20,25,22,25,<10,23,27,50,> 50,growth inhibition (GI) [21]: 97%; MIC (Proteus vulgaris [22]): 50 µg/mL; inhibition zone (IZ) (Staphylococcus aureus [23]): 22 mm; inhibition zone (IZ) (Pseudomonas aeruginosa [24]): 26 mm; MIC (Pseudomonas aeruginosa [25]): 25 µg/mL; MIC (Aspergillus niger [26]): 50 µg/mL; MIC (Staphylococcus aureus [27]): 6.25 µg/mL
CC1CC(C)CN(c2nc(-c3ccc(NCC(=O)Nc4nc5ccc(Br)cc5s4)cc3)nc(N3CC(C)CC(C)C3)n2)C1 (stereo unspecified),12.5,25,23,19,26,18,50,12.5,50,6.25,> 6.25,23,12.5,24,6.25,19,11,26,50,50,growth inhibition (GI) [21]: 99%; MIC (Proteus vulgaris [22]): 25 µg/mL; inhibition zone (IZ) (Staphylococcus aureus [23]): 25 mm; inhibition zone (IZ) (Pseudomonas aeruginosa [24]): 25 mm; MIC (Pseudomonas aeruginosa [25]): 25 µg/mL; MIC (Aspergillus niger [26]): 50 µg/mL; MIC (Staphylococcus aureus [27]): 1.56 µg/mL
CC1CC(C)CN(c2nc(-c3ccc(NCC(=O)Nc4nc5ccc(I)cc5s4)cc3)nc(N3CC(C)CC(C)C3)n2)C1 (stereo unspecified),200,23,18,<10,11,20,> 50,25,50,25,> 6.25,26,50,17,50,<10,12,24,50,50,growth inhibition (GI) [21]: 96%; MIC (Proteus vulgaris [22]): 12.5 µg/mL; inhibition zone (IZ) (Staphylococcus aureus [23]): 21 mm; inhibition zone (IZ) (Pseudomonas aeruginosa [24]): 16 mm; MIC (Pseudomonas aeruginosa [25]): 50 µg/mL; MIC (Aspergillus niger [26]): 50 µg/mL; MIC (Staphylococcus aureus [27]): 12.5 µg/mL
CC1CC(C)CN(c2nc(-c3ccc(NCC(=O)Nc4nc5ccc([N+](=O)[O-])cc5s4)cc3)nc(N3CC(C)CC(C)C3)n2)C1 (stereo unspecified),50,21,18,23,28,16,50,50,50,12.5,> 6.25,19,50,19,50,22,18,26,50,25,growth inhibition (GI) [21]: 98%; MIC (Proteus vulgaris [22]): 50 µg/mL; inhibition zone (IZ) (Staphylococcus aureus [23]): 22 mm; inhibition zone (IZ) (Pseudomonas aeruginosa [24]): 18 mm; MIC (Pseudomonas aeruginosa [25]): 50 µg/mL; MIC (Aspergillus niger [26]): 12.5 µg/mL; MIC (Staphylococcus aureus [27]): 12.5 µg/mL
CC1CC(C)CN(c2nc(-c3ccc(NCC(=O)Nc4nc5ccc(C#N)cc5s4)cc3)nc(N3CC(C)CC(C)C3)n2)C1 (stereo unspecified),100,22,25,19,16,<10,50,50,25,50,> 6.25,22,6.25,18,50,22,27,22,> 50,50,growth inhibition (GI) [21]: 95%; MIC (Proteus vulgaris [22]): 25 µg/mL; inhibition zone (IZ) (Staphylococcus aureus [23]): 24 mm; inhibition zone (IZ) (Pseudomonas aeruginosa [24]): 18 mm; MIC (Pseudomonas aeruginosa [25]): 50 µg/mL; MIC (Aspergillus niger [26]): 25 µg/mL; MIC (Staphylococcus aureus [27]): 6.25 µg/mL
Cc1ccc2nc(NC(=O)CNc3ccc(-c4nc(N5CC(C)CC(C)C5)nc(N5CC(C)CC(C)C5)n4)cc3)sc2c1 (stereo unspecified),250,12,16,<10,<10,13,> 50,50,50,50,> 6.25,20,50,<10,50,<10,16,19,50,> 50,growth inhibition (GI) [21]: 97%; MIC (Proteus vulgaris [22]): 50 µg/mL; inhibition zone (IZ) (Staphylococcus aureus [23]): 15 mm; inhibition zone (IZ) (Pseudomonas aeruginosa [24]): 15 mm; MIC (Pseudomonas aeruginosa [25]): 50 µg/mL; MIC (Aspergillus niger [26]): 50 µg/mL; MIC (Staphylococcus aureus [27]): 50 µg/mL
COc1ccc2nc(NC(=O)CNc3ccc(-c4nc(N5CC(C)CC(C)C5)nc(N5CC(C)CC(C)C5)n4)cc3)sc2c1 (stereo unspecified),12.5,25,20,19,23,25,> 50,12.5,50,12.5,> 6.25,27,25,20,50,<10,23,25,12.5,50,growth inhibition (GI) [21]: 98%; MIC (Proteus vulgaris [22]): 6.25 µg/mL; inhibition zone (IZ) (Staphylococcus aureus [23]): 26 mm; inhibition zone (IZ) (Pseudomonas aeruginosa [24]): 20 mm; MIC (Pseudomonas aeruginosa [25]): 50 µg/mL; MIC (Aspergillus niger [26]): 25 µg/mL; MIC (Staphylococcus aureus [27]): 1.56 µg/mL
